From PubChem BioAssay (NCI)
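A five-concentration, 48-hour dose response in 96-well plates underlies each endpoint, interpolated linearly between surrounding concentrations. GI50 marks 50% less growth. TGI: total growth inhibition.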

Legend:
Experiment in all cases: NCI tumour cell line growth inhibition, 48 h
[1] = test system: 786-0 renal
[2] = test system: ACHN renal
[3] = test system: CCRF-CEM leukemia
[4] = test system: DU-145 prostate
[5] = test system: HCC-2998 colon
[6] = test system: HOP-62 NSCLC
[7] = test system: IGROV1 ovarian
[8] = test system: M14 melanoma
[9] = test system: MDA-MB-231 breast
[10] = test system: MOLT-4 leukemia
[11] = test system: NCI-H522 lung
[12] = test system: PC-3 prostate
[13] = test system: RPMI-8226 leukemia
[14] = test system: T-47D breast

SMILES	TGI [1]	TGI [2]	TGI [3]	TGI [4]	TGI [5]	TGI [6]	TGI [7]	TGI [8]	TGI [9]	TGI [10]	TGI [11]	TGI [12]	TGI [13]	TGI [14]	GI50 [4]	GI50 [6]
COC(=O)C(COC(C)=O)NC(=O)/C=C/c1ccc(O)c(OC(C)=O)c1 (stereo unspecified)	> 100 µM	> 100 µM	> 100 µM	> 100 µM	> 100 µM	> 100 µM	> 100 µM	> 100 µM	> 100 µM	> 100 µM	40.4 µM	> 100 µM	> 100 µM	> 100 µM		
O=C(O)Cc1cccc2c1OC(c1ccccc1)C(Cl)(C(=O)c1ccccc1)C2=O (stereo unspecified)	25.9 µM	26.9 µM	18.2 µM	65.3 µM	26.1 µM	43.6 µM	28.9 µM		58.8 µM	62.3 µM	29.6 µM	24.3 µM	47.4 µM	40.2 µM		
c1ccc(CSP234N5CCN2CCN3CCN4CC5)c(CSP234N5CCN2CCN3CCN4CC5)c1	> 100 µM	> 100 µM	> 100 µM	> 100 µM	> 100 µM	> 100 µM	> 100 µM	> 100 µM	> 100 µM	> 100 µM	> 100 µM	> 100 µM	> 100 µM	> 100 µM		
CC(=O)OCCOCn1cnc2c(Cl)nc(Cl)nc21	58 µM	30.6 µM	23.7 µM	36.5 µM	25.6 µM	36.4 µM	30.6 µM	37.1 µM	29 µM	40 µM	4.07 µM	36.5 µM	33.5 µM	25.6 µM		
Cc1cc(=O)n2nc(CN3CCCCC3)sc2n1	> 100 µM	> 100 µM	> 100 µM	> 100 µM	> 100 µM	> 100 µM	> 100 µM	> 100 µM	> 100 µM	> 100 µM	> 100 µM	> 100 µM	> 100 µM	> 100 µM		
Cc1ccc(NC(=O)c2cccc(OP(=O)(O)Nc3ccc(C)cc3)c2)cc1	> 100 µM	> 100 µM	> 100 µM	> 100 µM	> 100 µM	> 100 µM	> 100 µM	> 100 µM	> 100 µM	> 100 µM	> 100 µM	> 100 µM	> 100 µM	> 100 µM		
COc1ccc(CCN2CCN(CCc3ccc(OC)cc3)CC2)cc1	> 100 µM	> 100 µM	> 100 µM	> 100 µM	> 100 µM	> 100 µM	> 100 µM	> 100 µM	> 100 µM	> 100 µM	> 100 µM	> 100 µM	> 100 µM	> 100 µM		
NC(CCC(=O)O)C(=O)N1CCN(c2nc(N3CCCC3)c3nc(Cl)c(NCc4ccccc4)nc3n2)CC1 (stereo unspecified)	25.9 µM	28.8 µM	26.2 µM	21.9 µM	24.9 µM	28.4 µM	40 µM	22.6 µM	31.2 µM	24.7 µM	34.5 µM	26.9 µM	34.3 µM	21.3 µM		
C/C=C(/C)C(=O)O[C@H]1C[C@@H]2[C@@H](O)c3occ(C)c3C[C@]2(C)[C@@H](C)C1	29.7 µM	31 µM	47.4 µM	28.2 µM	34 µM	31.3 µM	30.8 µM	29.9 µM	29.2 µM	37.1 µM	30.6 µM	35.2 µM	76.5 µM	30 µM		
COC(=O)C1C(=O)C=CN([C@H](C)c2ccccc2)[C@@H]1Cc1ccc(OC)c(OCc2ccccc2)c1I (stereo partly specified)	34.4 µM	70 µM	> 100 µM	42.6 µM	32.5 µM	52.4 µM	29.5 µM	30.2 µM	46.7 µM	> 100 µM	36.8 µM	> 100 µM	> 100 µM	60.9 µM		
O=C1C(Cl)C(c2cccc(Cl)c2)N1c1ccc(-n2c(=S)[nH]c3ccccc3c2=O)cc1 (stereo unspecified)	54.9 µM	48.8 µM	77.5 µM	> 100 µM	37.8 µM	73.8 µM	23.9 µM	58.7 µM	74.3 µM	37.6 µM	31.3 µM	> 100 µM	55.6 µM	> 100 µM		
CNC(=O)N1CN(c2ccccc2)C2(CCN(CCCC3(c4ccc(F)cc4)OCCO3)CC2)C1=O	> 100 µM	> 100 µM	> 100 µM	> 100 µM	> 100 µM	> 100 µM	> 100 µM	> 100 µM	> 100 µM	> 100 µM	> 100 µM	> 100 µM	> 100 µM	> 100 µM		
CCOC(=O)CN=C1NNS(=O)(=O)c2ccccc21	> 100 µM	> 100 µM	> 100 µM	> 100 µM	> 100 µM	> 100 µM	> 100 µM	> 100 µM	> 100 µM	> 100 µM	> 100 µM	> 100 µM	> 100 µM	> 100 µM		
CC1=CC(=O)N(n2c(Cc3ccccc3)n[nH]c2=O)C1=O	> 100 µM	> 100 µM	62.7 µM	> 100 µM	> 100 µM		> 100 µM	> 100 µM	> 100 µM	> 100 µM	> 100 µM	> 100 µM	> 100 µM	> 100 µM		
CC(=NNC(=S)Nc1ccc(C)cc1)c1cccc(C(C)=NNC(=S)Nc2ccc(C)cc2)n1	> 100 µM	95.2 µM	> 100 µM	> 100 µM	> 100 µM	68.7 µM	75.4 µM	47.7 µM	> 100 µM	22.9 µM	63.7 µM	> 100 µM	85.8 µM	> 100 µM		
CNc1nc2n(CCO)c(-c3ccccc3)c(-c3ccccc3)nc-2c(=O)n1	> 50 µM	> 50 µM	> 50 µM	> 50 µM	> 50 µM	> 50 µM	> 50 µM	> 50 µM	> 50 µM	> 50 µM	> 50 µM	> 50 µM	> 50 µM	> 50 µM		

SMILES	TGI [1]	TGI [2]	TGI [3]	TGI [4]	TGI [5]	TGI [6]	TGI [7]	TGI [8]	TGI [9]	TGI [10]	TGI [11]	TGI [12]	TGI [13]	TGI [14]	GI50 [4]	GI50 [6]
O=[N+]([O-])c1cccc2nc3ccccc3c(NCCC[N+]3([O-])CCOCC3)c12	0.729 µM	3.81 µM	0.583 µM	0.868 µM	0.0393 µM	0.689 µM	0.608 µM	0.921 µM	0.948 µM	> 100 µM	0.462 µM	2.22 µM	4.69 µM	0.919 µM		
COc1cc(OC)cc(-c2nc3cc(F)ccc3s2)c1	23.5 µM	29.8 µM	> 100 µM	> 100 µM	0.0449 µM		43.6 µM	> 100 µM	40.3 µM		45.5 µM	> 100 µM	> 100 µM	> 100 µM		
CC(C)(C)c1ccc(-c2nc3ccc(Cl)cc3c(=O)o2)cc1	> 100 µM	61.7 µM	34.2 µM	92.4 µM	27.6 µM	49.7 µM	87.2 µM	49.2 µM	18.6 µM	36.3 µM	29.7 µM	92.1 µM	54.1 µM	> 100 µM		
Cc1cccc2c(N)c3cccc(C(=O)NCC[N+](C)(C)Cc4c([N+](=O)[O-])ncn4C)c3nc12	37.2 µM	> 39.5 µM	> 100 µM	> 100 µM	> 95.7 µM	> 50.9 µM	> 100 µM	> 100 µM	> 82.1 µM	> 100 µM	> 52.9 µM	> 100 µM	> 100 µM	> 100 µM		
CCOP(=O)(CN1CCNCCNCC1)OCC	> 100 µM	> 100 µM	> 100 µM	> 100 µM	> 100 µM	> 100 µM	> 100 µM	> 100 µM	> 100 µM	> 100 µM	> 100 µM	> 100 µM	> 100 µM	> 100 µM		
CC(C)Oc1ccc2c(c1)OCC1Cc3ccccc3OC21 (stereo unspecified)	> 100 µM		> 100 µM	> 100 µM	> 100 µM	> 100 µM	> 100 µM	> 100 µM	> 100 µM	> 100 µM	> 100 µM	> 100 µM	> 100 µM	> 100 µM		
CC12CCC([C@H](C(O)C3CCCCC3)C1=O)C2(C)C (stereo partly specified)	> 100 µM	> 100 µM	> 100 µM	> 100 µM	> 100 µM	> 100 µM	> 100 µM	> 100 µM	> 100 µM	> 100 µM	> 100 µM	> 100 µM	> 100 µM	> 100 µM		
COc1cc(/C=C2\N=C(c3ccccc3)N(c3nc4c(OC)ccc(OC)c4s3)C2=O)ccc1O	> 100 µM	> 100 µM	> 100 µM	> 100 µM	> 100 µM	> 100 µM	> 100 µM	> 100 µM	> 100 µM	39.5 µM	> 100 µM	> 100 µM	62.8 µM	26.4 µM		
O=C1CCCC2(c3ccccc3)Nc3ccccc3N12 (stereo unspecified)	> 100 µM	> 100 µM	> 100 µM	> 100 µM	> 100 µM	> 100 µM	> 100 µM	> 100 µM	> 100 µM	> 100 µM	> 100 µM	> 100 µM	> 100 µM	> 100 µM		
Cc1ccc(C)c(COCCOCn2ccc(N)nc2=O)c1	> 100 µM	> 100 µM	> 100 µM	> 100 µM	> 100 µM	> 100 µM	> 100 µM	> 100 µM	> 100 µM	> 100 µM	> 100 µM	> 100 µM		> 100 µM		
NC(N)=N/N=C/c1c(-c2cccc([N+](=O)[O-])c2)nc2n1CCS2	> 100 µM	44.2 µM	> 100 µM	36.4 µM	48 µM	> 100 µM	30.9 µM	60 µM	44.5 µM	29.8 µM	32.2 µM	44.5 µM	> 100 µM	26.1 µM		
CN(/N=C/c1ccc(OCc2cccc(COc3ccc(C=O)cc3)n2)cc1)c1cnn(-c2ccc(Cl)cc2Cl)c(=O)c1Cl	> 100 µM	> 100 µM	> 100 µM	> 100 µM	> 100 µM	> 100 µM	> 100 µM	> 100 µM	> 100 µM	> 100 µM	> 100 µM	> 100 µM	> 100 µM	> 100 µM		
O=C(Cc1ccccc1)N/N=C/c1ccccc1O	> 100 µM	61 µM	> 100 µM	> 100 µM	> 100 µM		81.8 µM	22.8 µM	> 100 µM	> 100 µM	> 100 µM	> 100 µM	> 100 µM	> 100 µM		
CCNc1cc2c(cc1O)CC[C@@H]1[C@@H]2CC[C@]2(C)[C@@H](O)CC[C@@H]12	25.3 µM	22 µM	> 100 µM	20.5 µM	7.33 µM	23.2 µM	33.2 µM	18.9 µM	24.9 µM	46.7 µM	11.8 µM	22.8 µM	63.5 µM	> 55.3 µM	3.84 µM	0.584 µM
CN(C)/C=N/S(=O)(=O)c1nn2c(C=O)c(-c3ccc(Cl)cc3)nc2s1	2.5 µM	2.36 µM	0.701 µM	6.02 µM	9.75 µM	27.5 µM		2.17 µM	7.77 µM	2.68 µM	2.12 µM	9.38 µM	4.22 µM	3.36 µM		
O=C1N[C@@H](c2c[nH]c3cc(Br)ccc23)C(=O)N[C@H]1c1c[nH]c2cc(Br)ccc12	> 100 µM	> 100 µM	> 100 µM	> 100 µM	> 100 µM	> 100 µM	> 100 µM	> 100 µM	80.2 µM		> 100 µM	> 100 µM	> 100 µM	> 100 µM		
